The data set is described as follows: Human HepG2 cell viability assay in 384 well format. Type of data set: toxicity, cell-based. Also noted: dose 125 nL, time 70.5 hour; cytotoxicity at 70.5 h: concentration not given beside the values. Particulars: HepG2 cells, read-out: Inhibition.
In the case of `CC(C)c1nnc(NCc2ccsc2)o1`, the cytotoxicity at 70.5 h came to 3.33%.
Under `CCN(CC)C1COc2ccc(Br)cc2C1=O` (stereo unspecified) stands -5.6%; under `Cc1cc(C[C@@H]2CCC[C@H]2NCc2ccccc2C)on1`, -1.32%; under `CC(=O)c1ccc(NC(=O)N(CCN(C)C)Cc2ccc(C)s2)cc1`, 2.42%.
For `Cc1ccc(C(=O)N2CCC3(CCCCC3)C2)c(=O)[nH]1`, the cytotoxicity at 70.5 h was -105%.
Under `CC(C)N1CCCC(Cc2nccnc2Cl)C1` (stereo unspecified) stands -4.45%.
On to `Cc1nccc(-c2cccc(NCC(=O)N3CCNC3=O)c2)n1`, for which the cytotoxicity at 70.5 h is -0.295%.
Under `CC(=O)N[C@@H]1CN(Cc2nnc(-c3ccccc3)o2)C[C@H]1C(C)C` stands -16.1%.
On to `O=c1c2cccc(C(F)(F)F)c2ncn1C1CCNC1` (stereo unspecified), for which the cytotoxicity at 70.5 h was -13.6%.
In the case of `NC(=O)C(NC(=O)c1cc(Cl)c[nH]1)c1ccccc1` (stereo unspecified), the cytotoxicity at 70.5 h was -8.05%.
For the compound `Cc1nnc2n1CCN(Cc1nc3c(F)cccc3[nH]1)C2`, the cytotoxicity at 70.5 h is -9.16%.
Regarding `Cc1cc(C)n(C2CCCN(C(=O)CCNS(C)(=O)=O)C2)n1` (stereo unspecified), the cytotoxicity at 70.5 h is 14.9%.
On to `Cc1ccc(CNC(=O)Nc2nnc(C(C)C)s2)n1C`, for which the cytotoxicity at 70.5 h is -4.19%.
Regarding `CC(C)CCNC(=O)c1ccc2c(=O)n(-c3ccccc3)cnc2c1`, the cytotoxicity at 70.5 h was -25.3%.
With `CN(CCN1CCOCC1)C(=O)CCCOCCc1ccccc1`, the cytotoxicity at 70.5 h stood at 13.1%.
On to `CCC(=O)N1CCN(CCn2cccn2)c2ncccc2C1`, for which the cytotoxicity at 70.5 h is 12.9%.
On to `NC(=O)C1CCN(C(=O)NCc2ccc3c(c2)OCCO3)CC1`, for which the cytotoxicity at 70.5 h was -9.87%.
With `CSc1cc2c(cc1NC(=O)N(C)Cc1ccncc1)OCCO2`, the cytotoxicity at 70.5 h is -2.5%.
`CCCN1CCCN(c2ccc(-n3ccc(C)n3)nn2)CC1`: the cytotoxicity at 70.5 h is -7.57%.
Under `CNC(=O)[C@@H](c1ccccc1OC)N1CCC[C@H]1C(=O)NCCN(C)C` stands -5.36%.
Under `CCn1ncnc1C(C)Nc1cc(C2CCNCC2)nc(C)n1` (stereo unspecified) stands 26.8%.
Turning to `CCC(C)n1cnc(S(=O)(=O)N(C)c2cccnc2N(C)C)c1` (stereo unspecified), the cytotoxicity at 70.5 h was -7.28%.
As to `Cc1cc(CC(=O)NC2CCCN(c3ccccc3F)C2=O)n[nH]1` (stereo unspecified), the cytotoxicity at 70.5 h stood at 2.16%.
Regarding `Cc1cnn(CC2CN(CC(=O)NCCc3cccs3)CCO2)c1` (stereo unspecified), the cytotoxicity at 70.5 h was -2.04%.
Turning to `CCCNC(=O)N1CCN(Cc2cc(C)no2)CC1`, the cytotoxicity at 70.5 h was -8.29%.
With `N#Cc1ccc(OCC(O)CN2CCC(Cn3cccn3)CC2)cc1` (stereo unspecified), the cytotoxicity at 70.5 h was -3.6%.
Regarding `Fc1cccc(Cl)c1CNCCOc1ccccn1`, the cytotoxicity at 70.5 h was -20.9%.
Regarding `NC(=O)NC(CC(=O)NCCc1cccc(F)c1)c1ccccc1` (stereo unspecified), the cytotoxicity at 70.5 h is -6.09%.
Under `COCC(=O)N1CCc2ncc(Cn3cncn3)n2CC1` stands -16.6%.
As for `CCc1nc(C)c(C(=O)N(C)Cc2cnn(-c3cccc(OC)c3)c2)s1`, the cytotoxicity at 70.5 h is -3.66%.
As for `COc1ccc(-n2ccc(C(=O)NCCN3CCCCCC3)n2)cc1`, the cytotoxicity at 70.5 h is -2.62%.
For the compound `O=C(Cn1cccnc1=O)NCc1cccnc1OCC(F)(F)F`, the cytotoxicity at 70.5 h was found to be 2.5%.
Take `Cn1c(Cn2ccnc2)nnc1C1CCN(C(=O)c2ccccn2)CC1`: the cytotoxicity at 70.5 h stood at 5.03%.
For the compound `COCC(C)(O)CNC(=O)c1cc(-c2ccc(F)cc2)nn1C` (stereo unspecified), the cytotoxicity at 70.5 h was found to be 1.82%.
Turning to `CCOc1ccc(C(=O)N2CCN(c3nccn3C)CC2)cc1`, the cytotoxicity at 70.5 h is -0.809%.
On to `CC(C)c1ccc(S(=O)(=O)N2CCCC3(CCCN3S(C)(=O)=O)C2)cc1` (stereo unspecified), for which the cytotoxicity at 70.5 h came to 39.5%.
In the case of `NC(=O)c1cccc(CNC/C=C/c2ccccc2)c1`, the cytotoxicity at 70.5 h came to 12.6%.
As for `Cc1cccc(C(=O)N2C[C@@H]3[C@H](CC(=O)N4CCCC4)[C@@H]3C2)n1`, the cytotoxicity at 70.5 h was -6.1%.
For `CN1CCN(C(=O)CCCc2ccccc2)CC(O)(Cn2cccn2)C1` (stereo unspecified), the cytotoxicity at 70.5 h is -2.15%.
Regarding `c1ccc(OCCN2CCN(c3ncnc4[nH]ccc34)CC2)cc1`, the cytotoxicity at 70.5 h was determined as 24.7%.
`CC(=O)N1CCC2(C1)c1ccccc1S(=O)(=O)N2CCC(C)C` (stereo unspecified): the cytotoxicity at 70.5 h was -11.2%.
Regarding `Cc1nc(C)n(CC2CCCCN2c2ccnc(-c3ccccc3)n2)n1` (stereo unspecified), the cytotoxicity at 70.5 h was 5.38%.
Turning to `O=C(CN1CC(n2cccn2)C1)NCC1(c2ccccc2)CCC1`, the cytotoxicity at 70.5 h was determined as 13.6%.
`N#Cc1cc(F)ccc1CN1CCCCC1Cn1cccn1` (stereo unspecified): the cytotoxicity at 70.5 h is -1.56%.
`COc1cccc(CN2CCC3(CCN(C(=O)C4CC=CC4)CC3)C2)c1`: the cytotoxicity at 70.5 h is -3.83%.
With `CC(C)n1nc(CN2CCCCC2)c2c1CN(C(=O)c1ccno1)C2`, the cytotoxicity at 70.5 h is -8.4%.
As for `CCS(=O)(=O)CC(=O)Nc1ccccc1N1CCc2ccccc21`, the cytotoxicity at 70.5 h was -13.2%.
Under `COc1ccccc1OCCCc1cncc(C(N)=O)c1` stands -14.6%; under `Cn1ccc(C(=O)N2CCCC(Cc3cnc4ccccc4c3)C2)n1` (stereo unspecified), -1.48%; under `CN(C)Cc1ccnc(C2CCCN2Cc2ccc(F)cn2)n1` (stereo unspecified), 17.2%.
As for `Cc1noc(C)c1CNc1c(N2CCCC2)cccc1N1CCCC1`, the cytotoxicity at 70.5 h was -5.49%.
Under `Cc1ccc(NC(=O)CNc2cccc(C(N)=O)c2C)c(C)c1` stands 33.2%; under `Cc1c(CCC(=O)Nc2ccc(Br)cn2)cnn1C`, -5.19%; under `CS(=O)(=O)c1nnc(NC(=O)CCc2cccc(Cl)c2)[nH]1`, -7.49%.
In the case of `CN(C)C(=O)N1C[C@@H]2CCCO[C@@H]2[C@H](N(C)Cc2ccco2)C1`, the cytotoxicity at 70.5 h was -11.5%.
On to `Cc1nc[nH]c1CN1C[C@@H]2CC[C@H](C1)N(C(=O)CCn1cncn1)C2`, for which the cytotoxicity at 70.5 h is -15%.
Under `CCOC(=O)CC1(Nc2nc(C)nc3c2cnn3C)CCCCC1` stands -18%.
Under `COc1ccc(C2CCCN2Cc2nnnn2C2CC2)cc1OC` (stereo unspecified) stands -0.63%; under `COCC(=O)Nc1ccc(Sc2nncn2C)c(Cl)c1`, 10.4%; under `CCNC(=O)NC[C@H]1Cn2c(-c3ccccc3)cnc2CO1`, -3.79%.
In the case of `O=C(O)c1ccccc1-c1ccc(CN2CC(O)C2)cc1`, the cytotoxicity at 70.5 h is -11.6%.
Regarding `N#Cc1cccc(S(=O)(=O)NC(=O)c2csc(-c3ccco3)n2)c1`, the cytotoxicity at 70.5 h is 16.6%.
Under `CCN1Cc2c(C(=O)NCC3CC3)ncn2-c2ccccc2S1(=O)=O` stands -9.23%.
As to `Cc1noc(C)c1C(=O)N1C[C@@H]2CCCO[C@@H]2[C@H](N(C)C)C1`, the cytotoxicity at 70.5 h is -8.14%.
`Cc1nc(CC(=O)N2CCCCC2Cn2cccn2)cs1` (stereo unspecified): the cytotoxicity at 70.5 h is 25.2%.
Under `Cc1nc(N(C)C)nc(C)c1NS(=O)(=O)c1ccc(OC(F)(F)F)cc1` stands -6.13%; under `Fc1cnc(N2CCN(Cc3ccc(-c4cc[nH]n4)o3)CC2)nc1`, -3.42%; under `CCOc1c(Br)cc(CNC(C)c2nnc3n2CCC3)cc1OC` (stereo unspecified), -4.89%.
On to `OCCC[C@@H]1CN(c2ncc(Cl)cc2Cl)CC[C@@H]1N1CCOCC1`, for which the cytotoxicity at 70.5 h is 3.21%.
As to `OCCN(Cc1ccno1)Cc1cc(Br)ccc1F`, the cytotoxicity at 70.5 h is -14.1%.
Under `Cc1ccc(-c2nc(CNC3CCc4ncnn4C3)no2)cc1` (stereo unspecified) stands -1.3%.

Values taken from ChEMBL document CHEMBL3507680, “University of Dundee, Gates Library screen for HepG2 cell viability”.
